According to ChEMBL document CHEMBL3045773, “Synthesis and structureactivity relationship of acylthiourea derivatives as inhibitors of microsomal epoxide hydrolase” (Med Chem Res, 2012):

Each compound was assayed against T1, Epoxide hydrolase 1 (Homo sapiens, UniProt P07099) (assay: Inhibition of microsomal epoxide hydrolase (unknown origin) using 7-(2-(Oxiran-2-yl)ethoxy) Resorufin by fluorometric method).
T1 sequence (P07099 whole entry): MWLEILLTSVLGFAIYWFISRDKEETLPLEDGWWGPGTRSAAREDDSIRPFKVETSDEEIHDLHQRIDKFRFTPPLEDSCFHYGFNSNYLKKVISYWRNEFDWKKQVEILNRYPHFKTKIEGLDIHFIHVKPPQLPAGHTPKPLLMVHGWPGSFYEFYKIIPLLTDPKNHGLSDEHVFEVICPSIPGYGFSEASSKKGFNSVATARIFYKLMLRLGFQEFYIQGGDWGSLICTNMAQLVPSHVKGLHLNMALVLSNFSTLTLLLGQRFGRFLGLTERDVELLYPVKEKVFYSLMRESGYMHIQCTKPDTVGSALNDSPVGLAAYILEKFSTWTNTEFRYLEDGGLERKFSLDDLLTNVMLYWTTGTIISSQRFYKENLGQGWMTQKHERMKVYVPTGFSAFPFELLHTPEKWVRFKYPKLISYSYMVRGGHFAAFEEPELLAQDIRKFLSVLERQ
In the case of `O=C(NC(=S)Nc1ccc(N2CCOCC2)cc1)c1ccccc1`, the IC50 is reported as 1.72 µM.
`O=C(NC(=S)Nc1ccc(Cl)cc1)c1ccccc1` showed an IC50 of 1.64 µM.
Work on `COc1cc([N+](=O)[O-])ccc1NC(=S)NC(=O)c1ccccc1` yielded an IC50 of 1.65 µM.
`COc1cc(C)ccc1NC(=S)NC(=O)c1ccccc1` gave an IC50 of 2.54 µM.
In the case of `O=C(NC(=S)Nc1ccc(Oc2ccccc2)cc1)c1ccccc1`, the IC50 is reported as 2.1 µM.
For `CC(C)(C)NC(=S)NC(=O)c1ccccc1`, the IC50 was 1.58 µM.
`O=C(NC(=S)Nc1ccncc1)c1ccccc1` was tested, and the IC50 was 2.28 µM.
`O=C(NC(=S)Nc1ccc(Br)c2ccccc12)c1ccccc1` was tested, and the IC50 was 1.88 µM.
`O=C(NC(=S)NC12CC3CC(CC(C3)C1)C2)c1ccccc1` showed an IC50 of 1.01 µM.
`CC(=O)NC(=S)Nc1ccccc1C` was tested, and the IC50 was 1.5 µM.
`CC(=O)NC(=S)Nc1ccc(Cl)cc1` was tested, and the IC50 was 2.21 µM.
Compound `CC(=O)NC(=S)Nc1ccc(Br)cc1` has an IC50 of 1.64 µM.
Work on `CC(=O)NC(=S)Nc1cc(Cl)ccc1Cl` yielded an IC50 of 2.29 µM.
Compound `CCOc1ccc(OCC)c(NC(=S)NC(C)=O)c1` has an IC50 of 2.53 µM.
`CC(=O)NC(=S)Nc1ccc(Br)c(C(F)(F)F)c1` was tested, and the IC50 was 1.39 µM.
With `COc1cc([N+](=O)[O-])ccc1NC(=S)NC(C)=O` the IC50 was 1.87 µM.
With `COc1cc(C)ccc1NC(=S)NC(C)=O` the IC50 was 1.69 µM.
`CC(=O)NC(=S)Nc1ccc(Oc2ccccc2)cc1` was tested, and the IC50 was 3.7 µM.
Work on `CC(=O)NC(=S)Nc1ccc(N2CCOCC2)cc1` yielded an IC50 of 2.59 µM.
Work on `CC(=O)NC(=S)NC(C)(C)C` yielded an IC50 of 2.7 µM.
`CC(=O)NC(=S)Nc1ccncc1` showed an IC50 of 2.07 µM.
Work on `CC(=O)NC(=S)Nc1ccc(Br)c2ccccc12` yielded an IC50 of 2.42 µM.
`CC(=O)NC(=S)NC12CC3CC(CC(C3)C1)C2` gave an IC50 of 1.12 µM.
For `Cc1ccccc1NC(=S)NC(=O)c1ccccc1`, the IC50 was 3.54 µM.
In the case of `O=C(NC(=S)Nc1ccc(Br)cc1)c1ccccc1`, the IC50 is reported as 3.44 µM.
`O=C(NC(=S)Nc1cc(Cl)ccc1Cl)c1ccccc1` was tested, and the IC50 was 2.15 µM.
`CCOc1ccc(OCC)c(NC(=S)NC(=O)c2ccccc2)c1` was tested, and the IC50 was 2.04 µM.
For `O=C(NC(=S)Nc1ccc(Br)c(C(F)(F)F)c1)c1ccccc1`, the IC50 was 1.17 µM.
`O=C(Nc1ccccc1)Nc1ccccc1` showed an IC50 of 1.2 µM.
`CC(=O)NC(=S)Nc1ccccc1` [N-(PHENYLCARBAMOTHIOYL)ACETAMIDE] showed an IC50 of 2.35 µM.
With `O=C(NC(=S)Nc1ccccc1)c1ccccc1` [N-(PHENYLCARBAMOTHIOYL)BENZAMIDE] the IC50 was 1.29 µM.
